Data as given in PubChem BioAssay (NCI).
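Each compound was tested at five concentrations against cells in 96-well plates for 48 hours. TGI: concentration producing complete growth inhibition.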

What was measured:
Assay in all cases: NCI-60 cell line screen, 48 h
T-47D breast = test system: T-47D breast
BT-549 breast = test system: BT-549 breast
KM12 colon = test system: KM12 colon
NCI-H23 lung = test system: NCI-H23 lung
SF-268 CNS = test system: SF-268 CNS
MDA-N = test system: MDA-N
IGROV1 ovarian = test system: IGROV1 ovarian
SK-MEL-5 melanoma = test system: SK-MEL-5 melanoma
DU-145 prostate = test system: DU-145 prostate
NCI-H522 lung = test system: NCI-H522 lung
UACC-257 melanoma = test system: UACC-257 melanoma
OVCAR-8 ovarian = test system: OVCAR-8 ovarian
OVCAR-5 ovarian = test system: OVCAR-5 ovarian

Row | SMILES | TGI (T-47D breast) [µM] | TGI (BT-549 breast) [µM] | TGI (KM12 colon) [µM] | TGI (NCI-H23 lung) [µM] | TGI (SF-268 CNS) [µM] | TGI (MDA-N) [µM] | TGI (IGROV1 ovarian) [µM] | TGI (SK-MEL-5 melanoma) [µM] | TGI (DU-145 prostate) [µM] | TGI (NCI-H522 lung) [µM] | TGI (UACC-257 melanoma) [µM] | TGI (OVCAR-8 ovarian) [µM] | TGI (OVCAR-5 ovarian) [µM]
1 | O=c1ccc2ccc(OP(=O)(O)O)cc2o1 | > 100 | > 100 | > 100 | > 100 | > 100 | > 100 | > 100 | > 100 | > 100 | > 100 | > 100 | > 100 | > 100
2 | OC1(C(Sc2cc(C(F)(F)F)cc(C(F)(F)F)c2)Sc2cc(C(F)(F)F)cc(C(F)(F)F)c2)C=CCCC1 (stereo unspecified) | 4.26 | 9.89 | 5.83 | 8.66 | 8.81 | 8.16 | 8.56 | 16.6 | 8.99 | 5.75 | 3.56 | 7.9 | 6.6
3 | CCCCN1C(=O)C2Cc3c([nH]c4ccccc34)C(c3cccc(O)c3)N2C1=O (stereo unspecified) | 51.9 | 34.2 | 36.2 | 37.9 | 34.7 | 36.3 | 31.3 | 31.1 | 33.1 | 39.9 | 33.9 | 33.2 | 33
4 | Cc1ccc(CC2(C(=O)O)Cc3ccc(C)cc3C2)cc1 (stereo unspecified) | > 100 | > 100 | > 100 | > 100 | > 100 | > 100 | > 100 | > 100 | > 100 | > 100 | > 100 | > 100 | > 100
5 | Cc1cc(S(=O)(=O)Nc2n[nH]c(-c3ccc(Cl)cc3)n2)c(SSc2cc(Cl)c(C)cc2S(=O)(=O)Nc2n[nH]c(-c3ccc(Cl)cc3)n2)cc1Cl | 42.2 | > 100 | 77.4 | > 100 | > 100 | > 100 | 69.2 | 86.8 | > 100 | 83.9 | > 100 | > 100 | 86.9
6 | O=C1NC2c3c(I)sc(I)c3C(=O)C2O1 (stereo unspecified) | > 45.7 | 15.9 | 24.3 | 16.6 | 21.5 | 9.16 | 8.01 | 6.16 | 31 | 3.16 | 12.2 | 9.27 | 28.3
7 | CCOC1OC(COC(=O)C(C)(C)C)C(O)CC1n1cc(C)c(=O)[nH]c1=O (stereo unspecified) | > 100 | > 100 | > 100 | > 100 | > 100 | > 100 | > 100 | > 100 | > 100 | > 100 | > 100 | > 100 | > 100
